Data reported in the supplement of paper PMC10307832.

Key:
Assay in all cases: relative viability (nuclei count vs DMSO), 5 days (fraction); higher = more cells survive
[1] = compound: Cc1ccc2nc(NCCN)c3ncc(C)n3c2c1 + COc1cc2c(Oc3ccc(NC(=O)C4(C(=O)Nc5ccc(F)cc5)CC4)cc3F)ccnc2cc1OCCCN1CCOCC1 [Foretinib] (partner 0.25 µM)
In short: (§1)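 Cells from lung cancer lines were seeded into 1536-well plates and, one day later, dosed by pin tool. Treatments were either a single drug or a fixed dose of an anchor drug with five library-drug doses (not always all listed) in √10 steps. After 5 days, nuclei were stained in a one-step fixation (final 0.05% Triton X-100, 1% formaldehyde, 1 ug/ml Hoechst) and counted on 4× images, and relative viability is the treated-to-vehicle nuclei ratio, as the median of duplicate plates.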

[2] = compound: Cc1ccc2nc(NCCN)c3ncc(C)n3c2c1 + CS(=O)(=O)N1CCN(Cc2cc3nc(-c4cccc5[nH]ncc45)nc(N4CCOCC4)c3s2)CC1 [Pictilisib] (partner 1 µM)
In short: as §1

Salubrinal + Olaparib = compound: O=C(/C=C/c1ccccc1)NC(NC(=S)Nc1cccc2cccnc12)C(Cl)(Cl)Cl [Salubrinal] + O=C(c1cc(Cc2n[nH]c(=O)c3ccccc23)ccc1F)N1CCN(C(=O)C2CC2)CC1 [Olaparib] (partner 8 µM)
In short: as §1

Salubrinal + Tozasertib = compound: O=C(/C=C/c1ccccc1)NC(NC(=S)Nc1cccc2cccnc12)C(Cl)(Cl)Cl [Salubrinal] + Cc1cc(Nc2cc(N3CCN(C)CC3)nc(Sc3ccc(NC(=O)C4CC4)cc3)n2)n[nH]1 [Tozasertib] (partner 0.1 µM)
In short: as §1

| Cell Line | relative viability ([1]; first compound 0.04 µM) | relative viability ([1]; first compound 0.1265 µM) | relative viability ([1]; first compound 0.4 µM) | relative viability ([1]; first compound 1.265 µM) | relative viability ([1]; first compound 4 µM) | relative viability ([2]; first compound 0.04 µM) | relative viability ([2]; first compound 0.1265 µM) | relative viability ([2]; first compound 0.4 µM) | relative viability ([2]; first compound 1.265 µM) | relative viability ([2]; first compound 4 µM) | relative viability (Salubrinal + Olaparib; first compound 0.08 µM) | relative viability (Salubrinal + Olaparib; first compound 0.253 µM) | relative viability (Salubrinal + Olaparib; first compound 0.8 µM) | relative viability (Salubrinal + Olaparib; first compound 2.53 µM) | relative viability (Salubrinal + Olaparib; first compound 8 µM) | relative viability (Salubrinal + Tozasertib; first compound 0.08 µM) | relative viability (Salubrinal + Tozasertib; first compound 0.253 µM) | relative viability (Salubrinal + Tozasertib; first compound 0.8 µM) | relative viability (Salubrinal + Tozasertib; first compound 2.53 µM) | relative viability (Salubrinal + Tozasertib; first compound 8 µM) |
| --- | --- | --- | --- | --- | --- | --- | --- | --- | --- | --- | --- | --- | --- | --- | --- | --- | --- | --- | --- | --- |
| Calu-6 | 0.855 | 0.841 | 0.815 | 0.833 | 0.811 | 1 | 0.781 | 0.989 | 0.836 | 0.475 | 0.632 | 0.522 | 0.723 | 0.591 | 0.453 | – | – | – | – | – |
| ChaGo-K-1 | 0.897 | 1.03 | 0.884 | 0.82 | 0.895 | 0.697 | 0.743 | 0.661 | 0.671 | 0.443 | 0.46 | 0.404 | 0.449 | 0.395 | 0.383 | 0.257 | 0.264 | 0.231 | 0.216 | 0.216 |
| EBC-1 | 0.0984 | 0.102 | 0.098 | 0.0921 | 0.0989 | 0.4 | 0.35 | 0.336 | 0.246 | 0.263 | 0.787 | 0.616 | 0.73 | 0.604 | 0.585 | – | – | – | – | – |
| EKVX | 0.987 | 1.04 | 0.866 | 0.822 | 0.777 | 0.406 | 0.356 | 0.416 | 0.329 | 0.338 | 0.986 | 0.816 | 0.884 | 0.852 | 0.815 | 0.437 | 0.387 | 0.536 | 0.382 | 0.321 |
| EMC-BAC-2 | 0.966 | 0.992 | 0.988 | 1.01 | 1.05 | 0.586 | 0.58 | 0.554 | 0.569 | 0.579 | 0.496 | 0.513 | 0.525 | 0.466 | 0.525 | 0.239 | 0.289 | 0.313 | 0.255 | 0.261 |
| EPLC-272H | 0.664 | 0.809 | 0.64 | 0.75 | 0.692 | 0.33 | 0.356 | 0.288 | 0.336 | 0.306 | 0.913 | – | 0.977 | 0.596 | 0.452 | 0.426 | 0.249 | 0.258 | 0.243 | 0.242 |
| H3255 | 1.11 | 0.961 | 0.744 | 0.98 | 0.764 | 0.555 | 0.431 | 0.487 | 0.38 | 0.456 | 0.618 | 0.62 | 0.595 | 0.526 | 0.569 | 0.502 | 0.65 | 0.802 | 0.551 | 0.477 |
| HARA | 0.783 | 0.829 | 0.903 | 0.956 | 0.861 | 0.524 | 0.362 | 0.436 | 0.39 | 0.418 | 0.834 | 1.17 | 0.907 | 0.682 | 0.634 | 0.122 | 0.108 | 0.111 | 0.0979 | 0.106 |
| HCC-15 | 1.08 | 1.07 | 1.06 | 0.885 | 0.723 | 0.799 | 0.761 | 0.666 | 0.707 | 0.694 | 0.766 | 0.711 | 0.784 | 0.702 | 0.68 | 0.481 | 0.332 | 0.41 | 0.438 | 0.257 |
